Measured values taken from article PMC6210068 (ACS Omega, 2018).
Where two headings read alike, the source gives them in different places.

What was measured:
[1] = target: T1, DOR (Homo sapiens, UniProt P41143); assay: Radioligand binding at DOR
[2] = target: rat kidney TSPO (Rattus norvegicus, UniProt P16257); assay: Radioligand binding at TSPO; settings: for Ki: TSPO, rat TSPO, [3H]PK11195
[3] = target: hDAT (Homo sapiens, UniProt Q01959); assay: Radioligand binding at DAT; settings: for DAT, inhibition, % of control at 10 μM: [3H]WIN35428, negative = enhanced radioligand binding
[4] = target: T2, rat σ2 receptor (Rattus norvegicus, UniProt Q5U3Y7); assay: PDSP binding, σ2 receptor
T2 sequence (Q5U3Y7 1-176): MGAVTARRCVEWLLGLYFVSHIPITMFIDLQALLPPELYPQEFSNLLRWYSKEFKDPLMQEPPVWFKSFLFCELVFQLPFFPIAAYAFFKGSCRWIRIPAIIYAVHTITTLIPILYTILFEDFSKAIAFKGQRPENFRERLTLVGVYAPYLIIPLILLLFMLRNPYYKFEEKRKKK

[5] = target: T3, KOR (Homo sapiens, UniProt P41145); assay: biochemical; type: binding; settings: for Ki: KOR, [3H]U69593, mean ± SEM, N = 2–4
[6] = target: T4, MOR (Homo sapiens, UniProt P35372); assay: biochemical; type: binding; settings: for MOR, inhibition of radioligand binding at 10 μM (class): Table 2
[7] = target: T5, hA3AR (Homo sapiens, UniProt P0DMS8); assay: A3AR binding
T5 sequence (P0DMS8 1-318): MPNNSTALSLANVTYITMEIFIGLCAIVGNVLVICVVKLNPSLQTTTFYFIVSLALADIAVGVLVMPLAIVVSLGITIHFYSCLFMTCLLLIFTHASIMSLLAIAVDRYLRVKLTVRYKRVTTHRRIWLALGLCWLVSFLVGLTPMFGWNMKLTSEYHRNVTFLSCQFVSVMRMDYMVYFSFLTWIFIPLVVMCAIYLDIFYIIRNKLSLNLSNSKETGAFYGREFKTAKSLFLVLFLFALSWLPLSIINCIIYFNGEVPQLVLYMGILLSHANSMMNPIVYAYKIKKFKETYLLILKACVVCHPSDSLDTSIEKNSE

[8] = target: T6, hA1AR (Homo sapiens, UniProt P30542); assay: hA1AR binding; settings: for inhibition at 10 µM: read-out: binding inhibition at hA1AR (% at 10 μM)
T6 sequence (P30542 1-326): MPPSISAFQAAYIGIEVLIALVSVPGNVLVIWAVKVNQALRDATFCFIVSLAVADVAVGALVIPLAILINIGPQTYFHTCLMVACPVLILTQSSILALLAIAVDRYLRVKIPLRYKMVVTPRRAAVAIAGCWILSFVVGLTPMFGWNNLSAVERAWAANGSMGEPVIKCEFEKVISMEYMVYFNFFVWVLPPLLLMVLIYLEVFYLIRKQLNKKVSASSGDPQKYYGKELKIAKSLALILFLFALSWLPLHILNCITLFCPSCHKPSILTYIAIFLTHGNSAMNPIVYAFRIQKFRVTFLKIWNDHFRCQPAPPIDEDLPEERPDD

[9] = target: hA2AAR (Homo sapiens, UniProt P29274); assay: hA2AAR binding; settings: read-out: binding inhibition at hA2AAR (% at 10 μM)
[10] = target: hNOP (Homo sapiens, UniProt P41146); assay: Radioligand binding at NOP
[11] = target: T1, DOR; assay: β-arrestin-recruitment TANGO assay at DOR; type: cell-based; settings: 10 μM; for DOR Antag (%): vs naloxone 121 = 100% inhibition; for DOR Ag (%): vs standard agonist = 100%
[12] = target: T3, KOR; assay: β-arrestin-recruitment TANGO assay at KOR; type: cell-based; settings: 10 μM; vs naloxone 121 = 100% inhibition; agonist 109 (3 nM)
[13] = target: T4, MOR; assay: β-arrestin-recruitment TANGO assay at MOR; type: cell-based; settings: 10 μM; for MOR Antag (%): vs naloxone 121 = 100% inhibition, agonist 99 (300 nM); for MOR Ag (%): vs standard agonist = 100%
[14] = target: T3, KOR; type: cell-based

rat kidney TSPO, sequence (P16257 whole entry): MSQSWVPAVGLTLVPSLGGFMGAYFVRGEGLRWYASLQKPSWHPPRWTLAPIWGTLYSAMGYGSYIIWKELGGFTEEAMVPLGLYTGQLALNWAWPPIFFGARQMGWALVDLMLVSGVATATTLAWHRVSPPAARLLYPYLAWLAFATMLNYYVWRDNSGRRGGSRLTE
hNOP, sequence (P41146 whole entry): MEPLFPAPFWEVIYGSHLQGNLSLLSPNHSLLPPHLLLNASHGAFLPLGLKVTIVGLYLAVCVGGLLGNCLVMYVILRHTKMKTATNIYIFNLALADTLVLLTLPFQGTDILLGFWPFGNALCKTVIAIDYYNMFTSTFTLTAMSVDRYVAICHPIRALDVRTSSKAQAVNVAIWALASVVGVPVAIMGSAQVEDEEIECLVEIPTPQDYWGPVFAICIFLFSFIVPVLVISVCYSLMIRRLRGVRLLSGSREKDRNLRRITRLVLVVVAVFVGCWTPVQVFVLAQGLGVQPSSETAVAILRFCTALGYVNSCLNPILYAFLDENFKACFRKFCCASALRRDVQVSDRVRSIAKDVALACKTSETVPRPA
T4 sequence (P35372 whole entry): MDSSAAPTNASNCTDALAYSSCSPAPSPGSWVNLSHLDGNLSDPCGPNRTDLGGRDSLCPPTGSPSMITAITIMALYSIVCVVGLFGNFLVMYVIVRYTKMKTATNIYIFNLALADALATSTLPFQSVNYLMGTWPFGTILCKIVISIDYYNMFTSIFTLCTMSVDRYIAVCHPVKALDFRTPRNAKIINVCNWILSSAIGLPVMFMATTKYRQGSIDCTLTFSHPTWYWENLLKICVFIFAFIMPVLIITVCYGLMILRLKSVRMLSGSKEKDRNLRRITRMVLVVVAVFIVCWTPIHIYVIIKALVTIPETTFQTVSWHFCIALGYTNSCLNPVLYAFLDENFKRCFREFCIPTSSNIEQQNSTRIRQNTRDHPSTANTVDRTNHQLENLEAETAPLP
hDAT, sequence (Q01959 whole entry): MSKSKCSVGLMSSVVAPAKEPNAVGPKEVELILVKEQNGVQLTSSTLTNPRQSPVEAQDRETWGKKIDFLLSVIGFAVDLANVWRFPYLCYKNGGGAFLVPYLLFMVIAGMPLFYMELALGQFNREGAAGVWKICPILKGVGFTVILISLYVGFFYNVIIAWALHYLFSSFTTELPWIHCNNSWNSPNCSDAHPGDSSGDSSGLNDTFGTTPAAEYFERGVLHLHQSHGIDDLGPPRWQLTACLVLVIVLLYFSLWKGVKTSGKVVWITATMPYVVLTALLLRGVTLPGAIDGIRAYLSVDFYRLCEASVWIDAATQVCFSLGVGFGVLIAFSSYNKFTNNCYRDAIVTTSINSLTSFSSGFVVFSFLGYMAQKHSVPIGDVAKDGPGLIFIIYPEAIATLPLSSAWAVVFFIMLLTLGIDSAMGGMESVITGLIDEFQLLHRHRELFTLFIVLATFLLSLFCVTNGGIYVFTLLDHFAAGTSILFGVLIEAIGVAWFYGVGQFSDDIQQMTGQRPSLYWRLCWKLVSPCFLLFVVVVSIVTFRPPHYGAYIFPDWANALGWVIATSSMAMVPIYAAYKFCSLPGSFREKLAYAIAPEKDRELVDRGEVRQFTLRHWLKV
hA2AAR, sequence (P29274 whole entry): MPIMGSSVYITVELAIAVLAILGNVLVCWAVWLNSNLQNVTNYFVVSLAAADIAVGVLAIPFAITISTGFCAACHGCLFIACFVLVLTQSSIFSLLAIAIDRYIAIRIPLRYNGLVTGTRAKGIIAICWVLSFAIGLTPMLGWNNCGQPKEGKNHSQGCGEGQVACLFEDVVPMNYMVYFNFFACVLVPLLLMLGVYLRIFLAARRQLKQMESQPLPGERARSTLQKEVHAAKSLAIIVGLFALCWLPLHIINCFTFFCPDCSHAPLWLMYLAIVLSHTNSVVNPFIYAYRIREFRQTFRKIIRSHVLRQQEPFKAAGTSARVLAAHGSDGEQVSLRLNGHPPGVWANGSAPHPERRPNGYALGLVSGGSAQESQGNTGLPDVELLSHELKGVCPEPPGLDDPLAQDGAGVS
T3 sequence (P41145 whole entry): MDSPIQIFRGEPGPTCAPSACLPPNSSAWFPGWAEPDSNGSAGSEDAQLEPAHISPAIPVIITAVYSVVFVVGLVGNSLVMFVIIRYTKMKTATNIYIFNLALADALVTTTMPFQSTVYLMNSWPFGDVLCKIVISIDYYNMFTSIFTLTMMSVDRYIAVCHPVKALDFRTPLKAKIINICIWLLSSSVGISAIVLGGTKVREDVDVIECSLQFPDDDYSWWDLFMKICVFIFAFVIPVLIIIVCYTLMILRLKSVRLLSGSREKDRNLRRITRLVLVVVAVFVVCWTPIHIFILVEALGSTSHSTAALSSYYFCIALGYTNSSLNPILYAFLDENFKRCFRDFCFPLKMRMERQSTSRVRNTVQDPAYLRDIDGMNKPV
T1 sequence (P41143 whole entry): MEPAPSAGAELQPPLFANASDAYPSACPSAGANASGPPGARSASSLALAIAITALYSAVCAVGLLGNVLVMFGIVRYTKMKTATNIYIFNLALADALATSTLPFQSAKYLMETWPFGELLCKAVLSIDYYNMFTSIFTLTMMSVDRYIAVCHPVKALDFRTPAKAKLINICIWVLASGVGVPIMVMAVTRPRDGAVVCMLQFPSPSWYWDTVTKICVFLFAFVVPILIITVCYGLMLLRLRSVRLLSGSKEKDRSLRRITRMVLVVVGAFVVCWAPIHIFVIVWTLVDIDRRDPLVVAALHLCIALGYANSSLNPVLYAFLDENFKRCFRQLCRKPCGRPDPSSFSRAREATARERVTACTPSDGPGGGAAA

DAT, inhibition, % of control at 10 μM [3]	Ki [5] [nM]	Ki [6] [nM]	Ki [2] [nM]	Ki [7] [nM]	inhibition at 10 µM [8] [%]	Ki [1] [nM]	SMILES	further results
24%							O[C@@H]1[C@H](O)[C@@H]2C[C@@H]2[C@H]1n1cnc2c(NCCc3ccccc3)nc(C#Cc3ccccc3)nc21 [compound 51]	DOR, inhibition of radioligand binding at 10 μM (class) ([1]; Table 4): ^g (<30% inhibition of radioligand binding at 10 μM); TSPO, inhibition of radioligand binding at 10 μM (class) ([2]; Table 4): ^g (<30% inhibition of radioligand binding at 10 μM); Ki [4]: 1480 nM
21%			~300		22		CNC(=O)[C@@]12C[C@@H]1[C@@H](n1cnc3c(NCc4cccc(Cl)c4)nc(C#Cc4ccc(F)cc4)nc31)[C@H](O)[C@@H]2O [compound 7]	
–312%	852 ± 137	2110 ± 590		228 ± 115	44	2400 ± 90	CCOC(=O)[C@@]12C[C@@H]1[C@@H](n1ccc3c(NC4CC4)nc(C#Cc4ccccc4)nc31)[C@H](O)[C@@H]2O [compound 41, Ethyl(1S,2R,3S,4R,5S)-4-(4-(cyclopropylamino)-2-(phenylethynyl)-7H-pyrrolo[2,3-d]pyrimidin-7-yl)-2,3-dihydroxybicyclo[3.1.0]hexane-1-carboxylate]	TSPO, inhibition of radioligand binding at 10 μM (class) ([2]; Table 2): ^c (30–50% inhibition of radioligand binding at 10 μM); inhibition at 10 µM [9]: 25%
<10%	104 ± 35			390 ± 139		1590 ± 280	CCOC(=O)[C@@]12C[C@@H]1[C@@H](n1ccc3c(NC)nc(I)nc31)[C@H](O)[C@@H]2O [compound 39, Ethyl(1S,2R,3S,4R,5S)-2,3-dihydroxy-4-(2-iodo-4-(methylamino)-7H-pyrrolo[2,3-d]pyrimidin-7-yl)bicyclo[3.1.0]hexane-1-carboxylate]	MOR, inhibition of radioligand binding at 10 μM (class) [6]: ^c (30–50% inhibition of radioligand binding at 10 μM); TSPO, inhibition of radioligand binding at 10 μM (class) ([2]; Table 2): ^d (<30% inhibition of radioligand binding at 10 μM); βarrestin2 recruitment, Imax (% 120) ([14]; antagonism of 1 μM U69593 98): 77 ± 3 % 120
–430%	975 ± 198		1520 ± 250				CCOC(=O)[C@@]12C[C@@H]1[C@@H](n1cnc3c(NC)nc(C#Cc4ccc(Br)s4)nc31)[C@H](O)[C@@H]2O [compound 25]	DOR, inhibition of radioligand binding at 10 μM (class) ([1]; Table 2): ^c (30–50% inhibition of radioligand binding at 10 μM); MOR, inhibition of radioligand binding at 10 μM (class) [6]: ^c (30–50% inhibition of radioligand binding at 10 μM); Ki [10]: > 10000 nM; DOR Antag (%) [11]: –6.0%; DOR Ag (%) [11]: –1.7%; KOR Antag (%) [12]: 88.1%; MOR Antag (%) [13]: 22.6%; MOR Ag (%) [13]: –1.2%

The remaining lines, values behind:

SMILES	DAT, inhibition, % of control at 10 μM [3]	Ki [5] [nM]	Ki [6] [nM]	Ki [2] [nM]	Ki [7] [nM]	inhibition at 10 µM [8] [%]	Ki [1] [nM]	further results
CCOC(=O)[C@@]12C[C@@H]1[C@@H](n1ccc3c(NCC4CC4)nc(C#Cc4ccccc4)nc31)[C@H](O)[C@@H]2O [compound 42, Ethyl(1S,2R,3S,4R,5S)-4-(4-((cyclopropylmethyl)amino)-2-(phenylethynyl)-7H-pyrrolo[2,3-d]pyrimidin-7-yl)-2,3-dihydroxybicyclo[3.1.0]hexane-1-carboxylate]	–13%	1400 ± 210	1300 ± 530	4470 ± 1330	791 ± 433	34		DOR, inhibition of radioligand binding at 10 μM (class) ([1]; Table 2): ^c (30–50% inhibition of radioligand binding at 10 μM); inhibition at 10 µM [9]: 20%; Ki [4]: 1110 nM
CCCNc1nc(C#Cc2ccc(Cl)s2)nc2c1ncn2[C@H]1[C@H](O)[C@H](O)[C@]2(C(=O)NC)C[C@H]12 [compound 18]	–159%			1310 ± 210		22		DOR, inhibition of radioligand binding at 10 μM (class) ([1]; Table 1): ^e (30–50% inhibition of radioligand binding at 10 μM)
CNC(=O)[C@@]12C[C@@H]1[C@@H](n1cnc3c(NCc4cccc(Cl)c4)nc(C#Cc4ccc(F)c(F)c4)nc31)[C@H](O)[C@@H]2O [compound 4]	16%			~300			2480 ± 790	Ki [10]: 4560 ± 450 nM; DOR Antag (%) [11]: 25.3%; DOR Ag (%) [11]: –10.3%; KOR Antag (%) [12]: 125%; MOR Antag (%) [13]: 18.8%; MOR Ag (%) [13]: –1.6%
Oc1ccc2c3c1O[C@H]1c4[nH]c5c(c4C[C@@]4(O)[C@@H](C2)N(CC2CC2)CC[C@]314)C[C@@]1(O)[C@H]2Cc3ccc(O)c4c3[C@@]1(CCN2CC1CC1)[C@H]5O4 [compound 120, Norbinaltorphimine, reference compound]								βarrestin2 recruitment, Imax (% 120) [14]: 100 % 120
CCCCC(=O)[C@@]12C[C@@H]1[C@@H](n1ccc3c(NC)nc(C#Cc4ccc(Cl)s4)nc31)[C@H](O)[C@@H]2O [compound 44]	–9%	2610 ± 660			98 ± 30			Ki [10]: > 10000 nM; DOR Antag (%) [11]: 20.3%; DOR Ag (%) [11]: 6.7%; KOR Antag (%) [12]: 65.5%; MOR Antag (%) [13]: –44.4%; MOR Ag (%) [13]: 6.0%
CCOC(=O)[C@@]12C[C@@H]1[C@@H](n1ccc3c(NC)nc(C#Cc4ccc(Br)s4)nc31)[C@H](O)[C@@H]2O [compound 29, Ethyl(1S,2R,3S,4R,5S)-4-(2-((5-bromothiophen-2-yl)ethynyl)-4-(methylamino)-7H-pyrrolo[2,3-d]pyrimidin-7-yl)-2,3-dihydroxybicyclo[3.1.0]hexane-1-carboxylate]	–102 ± 8 (3) %	39 ± 1	368 ± 135	765 ± 118	466 ± 20		437 ± 94	preference for KOR in comparison to DOR ([5]; ratio of Ki): 11 fold; preference for KOR in comparison to MOR ([5]; ratio of Ki): 9 fold; preference for KOR in comparison to TSPO ([5]; ratio of Ki): ~20 fold; Ki [10]: 2760 ± 670 nM; EC50 [3]: > 1000 nM; DOR Antag (%) [11]: 93.2%; DOR Ag (%) [11]: –1.1%; KOR Antag (%) [12]: 104.5%; MOR Antag (%) [13]: 96.9%; MOR Ag (%) [13]: 1.6%
O[C@@H]1[C@H](O)[C@@H]2C[C@@H]2[C@H]1n1ccc2c(NC(C3CC3)C3CC3)nc(C#Cc3ccccc3)nc21 [compound 56, (1R,2R,3S,4R,5S)-4-(4-((Dicyclopropylmethyl)amino)-2-(phenylethynyl)-7H-pyrrolo[2,3-d]pyrimidin-7-yl)bicyclo[3.1.0]hexane-2,3-diol]			1440 ± 750	4210 ± 1840	178 ± 32		2550 ± 660	KOR, inhibition of radioligand binding at 10 μM (class) ([5]; Table 5, 10 μM): ^d (30–50% inhibition of radioligand binding at 10 μM); Ki [8]: 650 nM; Ki [4]: 670 nM
O[C@@H]1[C@H](O)[C@@H]2C[C@@H]2[C@H]1n1cnc2c(NCCc3ccccc3)nc(C#Cc3ccccc3Cl)nc21 [compound 52]	7%			877 ± 368				DOR, inhibition of radioligand binding at 10 μM (class) ([1]; Table 4): ^f (30–50% inhibition of radioligand binding at 10 μM); Ki [4]: 1820 nM
CCOC(=O)[C@@]12C[C@@H]1[C@@H](n1ccc3c(NC)nc(C#Cc4ccccc4)nc31)[C@H](O)[C@@H]2O [compound 40, Ethyl(1S,2R,3S,4R,5S)-2,3-dihydroxy-4-(4-(methylamino)-2-(phenylethynyl)-7H-pyrrolo[2,3-d]pyrimidin-7-yl)bicyclo[3.1.0]hexane-1-carboxylate]	–66%	91.5 ± 23.7	1480 ± 450	> 10000	344 ± 40	35	1780 ± 410	inhibition at 10 µM [9]: 22%; βarrestin2 recruitment, Imax (% 120) ([14]; antagonism of 1 μM U69593 98): 76 ± 2 % 120
